From ChEMBL document CHEMBL3991601, “The target landscape of clinical kinase drugs” (Science, 2017)
pKd: −log10 of the molar value. Activity calls are given as the source filed them.

Columns and labels:
[1] = molecular target: T1, Acyl-CoA dehydrogenase family member 11 (Homo sapiens, UniProt Q709F0)
T1 sequence (Q709F0 whole entry): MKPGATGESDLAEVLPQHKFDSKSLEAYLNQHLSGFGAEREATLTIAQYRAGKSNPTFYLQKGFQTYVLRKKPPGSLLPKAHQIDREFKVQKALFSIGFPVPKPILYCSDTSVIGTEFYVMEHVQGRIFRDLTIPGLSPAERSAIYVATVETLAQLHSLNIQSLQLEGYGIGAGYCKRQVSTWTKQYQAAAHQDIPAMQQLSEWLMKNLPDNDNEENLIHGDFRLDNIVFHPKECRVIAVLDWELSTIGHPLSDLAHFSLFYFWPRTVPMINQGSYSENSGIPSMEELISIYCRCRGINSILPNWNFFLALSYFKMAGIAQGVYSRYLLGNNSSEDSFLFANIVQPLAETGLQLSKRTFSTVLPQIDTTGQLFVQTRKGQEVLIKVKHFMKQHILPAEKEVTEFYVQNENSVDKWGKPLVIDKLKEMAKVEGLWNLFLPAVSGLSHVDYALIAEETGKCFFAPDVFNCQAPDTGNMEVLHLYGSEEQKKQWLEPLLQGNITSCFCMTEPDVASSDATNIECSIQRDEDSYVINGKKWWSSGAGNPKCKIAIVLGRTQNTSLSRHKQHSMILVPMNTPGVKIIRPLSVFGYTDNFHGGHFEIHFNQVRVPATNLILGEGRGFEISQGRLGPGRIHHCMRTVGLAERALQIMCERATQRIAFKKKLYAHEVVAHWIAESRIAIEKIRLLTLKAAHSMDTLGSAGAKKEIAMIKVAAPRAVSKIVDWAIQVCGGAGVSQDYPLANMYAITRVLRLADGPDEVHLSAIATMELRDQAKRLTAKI

[2] = molecular target: Casein kinase II subunit alpha' (Homo sapiens, UniProt P19784)
[3] = molecular target: T2, cGMP-dependent protein kinase 1 (Homo sapiens, UniProt Q13976)
T2 sequence (Q13976 whole entry): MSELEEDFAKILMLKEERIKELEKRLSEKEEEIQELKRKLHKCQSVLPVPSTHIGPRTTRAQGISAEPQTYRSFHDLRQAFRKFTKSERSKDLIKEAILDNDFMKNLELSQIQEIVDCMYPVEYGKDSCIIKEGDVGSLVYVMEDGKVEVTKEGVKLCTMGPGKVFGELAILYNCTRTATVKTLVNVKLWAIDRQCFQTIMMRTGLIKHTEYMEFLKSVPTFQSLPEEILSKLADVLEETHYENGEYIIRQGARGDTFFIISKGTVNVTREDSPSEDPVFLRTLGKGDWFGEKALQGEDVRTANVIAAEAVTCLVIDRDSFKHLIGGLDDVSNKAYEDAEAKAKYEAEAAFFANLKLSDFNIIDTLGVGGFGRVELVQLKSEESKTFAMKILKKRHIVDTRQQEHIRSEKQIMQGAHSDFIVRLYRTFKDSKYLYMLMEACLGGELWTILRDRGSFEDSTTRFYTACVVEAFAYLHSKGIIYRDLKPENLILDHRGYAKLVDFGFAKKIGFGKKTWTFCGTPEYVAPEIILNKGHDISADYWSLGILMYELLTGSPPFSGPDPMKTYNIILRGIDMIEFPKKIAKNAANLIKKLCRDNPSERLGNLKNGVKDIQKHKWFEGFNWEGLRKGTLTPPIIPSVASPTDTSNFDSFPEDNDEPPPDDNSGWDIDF

[4] = molecular target: Ribosomal protein S6 kinase alpha-4 (Homo sapiens, UniProt O75676)
[5] = molecular target: Serine/threonine-protein kinase B-raf (Homo sapiens, UniProt P15056)
TGF-beta receptor type-1 = molecular target: T3, TGF-beta receptor type-1 (Homo sapiens, UniProt P36897)
T3 sequence (P36897 whole entry): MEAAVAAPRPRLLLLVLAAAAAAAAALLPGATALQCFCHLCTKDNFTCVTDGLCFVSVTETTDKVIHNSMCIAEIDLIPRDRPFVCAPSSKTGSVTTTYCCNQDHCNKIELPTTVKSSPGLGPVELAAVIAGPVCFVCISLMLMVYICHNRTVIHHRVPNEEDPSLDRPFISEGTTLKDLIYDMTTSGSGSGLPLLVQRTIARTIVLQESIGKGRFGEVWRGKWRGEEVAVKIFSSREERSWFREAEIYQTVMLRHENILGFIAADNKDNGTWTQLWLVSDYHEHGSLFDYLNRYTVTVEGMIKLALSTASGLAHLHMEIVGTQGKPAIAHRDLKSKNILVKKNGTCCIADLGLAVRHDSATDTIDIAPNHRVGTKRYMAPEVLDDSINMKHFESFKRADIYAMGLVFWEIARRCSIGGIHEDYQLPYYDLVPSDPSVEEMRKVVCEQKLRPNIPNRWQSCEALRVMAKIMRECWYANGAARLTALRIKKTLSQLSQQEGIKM

[6] = molecular target: Serine/threonine-protein kinase MRCK alpha (Homo sapiens, UniProt Q5VT25)
[7] = molecular target: T4, Signal recognition particle receptor subunit alpha (Homo sapiens, UniProt P08240)
T4 sequence (P08240 whole entry): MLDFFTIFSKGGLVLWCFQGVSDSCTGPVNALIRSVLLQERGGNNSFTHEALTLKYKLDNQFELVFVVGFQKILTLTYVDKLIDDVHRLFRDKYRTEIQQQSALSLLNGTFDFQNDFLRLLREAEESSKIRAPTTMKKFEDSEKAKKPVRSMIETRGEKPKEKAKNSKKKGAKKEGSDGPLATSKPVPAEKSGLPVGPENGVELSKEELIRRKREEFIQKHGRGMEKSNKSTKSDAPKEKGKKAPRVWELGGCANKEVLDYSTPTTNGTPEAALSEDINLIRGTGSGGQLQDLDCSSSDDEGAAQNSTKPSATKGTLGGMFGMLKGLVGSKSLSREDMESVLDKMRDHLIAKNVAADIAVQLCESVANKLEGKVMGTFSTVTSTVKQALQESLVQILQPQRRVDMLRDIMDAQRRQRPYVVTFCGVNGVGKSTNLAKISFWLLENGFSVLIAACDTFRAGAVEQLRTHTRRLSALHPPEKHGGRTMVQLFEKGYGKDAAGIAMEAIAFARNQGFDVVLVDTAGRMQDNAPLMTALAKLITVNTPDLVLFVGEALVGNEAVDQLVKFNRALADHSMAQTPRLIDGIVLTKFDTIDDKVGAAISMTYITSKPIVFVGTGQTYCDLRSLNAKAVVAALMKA
Also: in the data inactive means no Kd found up to 30 µM.

Chain of Serine/threonine-protein kinase B-raf (P15056 whole entry): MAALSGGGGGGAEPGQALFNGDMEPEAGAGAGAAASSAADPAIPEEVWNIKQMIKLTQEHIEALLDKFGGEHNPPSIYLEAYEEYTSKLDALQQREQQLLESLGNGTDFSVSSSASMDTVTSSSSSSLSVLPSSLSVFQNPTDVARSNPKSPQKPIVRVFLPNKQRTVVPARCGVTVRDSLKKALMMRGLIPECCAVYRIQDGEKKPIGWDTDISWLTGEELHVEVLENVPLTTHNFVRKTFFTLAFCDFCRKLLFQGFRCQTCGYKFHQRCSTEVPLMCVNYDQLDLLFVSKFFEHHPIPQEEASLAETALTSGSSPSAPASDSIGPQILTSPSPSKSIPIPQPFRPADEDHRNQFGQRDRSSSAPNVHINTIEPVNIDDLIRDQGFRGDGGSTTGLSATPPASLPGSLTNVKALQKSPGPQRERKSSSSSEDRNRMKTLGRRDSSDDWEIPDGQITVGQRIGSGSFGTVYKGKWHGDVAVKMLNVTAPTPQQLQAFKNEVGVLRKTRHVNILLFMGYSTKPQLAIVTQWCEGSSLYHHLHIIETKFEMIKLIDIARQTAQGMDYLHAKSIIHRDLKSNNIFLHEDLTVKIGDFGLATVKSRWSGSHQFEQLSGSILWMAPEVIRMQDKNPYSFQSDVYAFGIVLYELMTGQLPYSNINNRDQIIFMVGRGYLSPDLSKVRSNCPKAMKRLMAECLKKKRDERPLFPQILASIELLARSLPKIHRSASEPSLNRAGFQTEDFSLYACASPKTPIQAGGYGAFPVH
Chain of Serine/threonine-protein kinase MRCK alpha (Q5VT25 whole entry): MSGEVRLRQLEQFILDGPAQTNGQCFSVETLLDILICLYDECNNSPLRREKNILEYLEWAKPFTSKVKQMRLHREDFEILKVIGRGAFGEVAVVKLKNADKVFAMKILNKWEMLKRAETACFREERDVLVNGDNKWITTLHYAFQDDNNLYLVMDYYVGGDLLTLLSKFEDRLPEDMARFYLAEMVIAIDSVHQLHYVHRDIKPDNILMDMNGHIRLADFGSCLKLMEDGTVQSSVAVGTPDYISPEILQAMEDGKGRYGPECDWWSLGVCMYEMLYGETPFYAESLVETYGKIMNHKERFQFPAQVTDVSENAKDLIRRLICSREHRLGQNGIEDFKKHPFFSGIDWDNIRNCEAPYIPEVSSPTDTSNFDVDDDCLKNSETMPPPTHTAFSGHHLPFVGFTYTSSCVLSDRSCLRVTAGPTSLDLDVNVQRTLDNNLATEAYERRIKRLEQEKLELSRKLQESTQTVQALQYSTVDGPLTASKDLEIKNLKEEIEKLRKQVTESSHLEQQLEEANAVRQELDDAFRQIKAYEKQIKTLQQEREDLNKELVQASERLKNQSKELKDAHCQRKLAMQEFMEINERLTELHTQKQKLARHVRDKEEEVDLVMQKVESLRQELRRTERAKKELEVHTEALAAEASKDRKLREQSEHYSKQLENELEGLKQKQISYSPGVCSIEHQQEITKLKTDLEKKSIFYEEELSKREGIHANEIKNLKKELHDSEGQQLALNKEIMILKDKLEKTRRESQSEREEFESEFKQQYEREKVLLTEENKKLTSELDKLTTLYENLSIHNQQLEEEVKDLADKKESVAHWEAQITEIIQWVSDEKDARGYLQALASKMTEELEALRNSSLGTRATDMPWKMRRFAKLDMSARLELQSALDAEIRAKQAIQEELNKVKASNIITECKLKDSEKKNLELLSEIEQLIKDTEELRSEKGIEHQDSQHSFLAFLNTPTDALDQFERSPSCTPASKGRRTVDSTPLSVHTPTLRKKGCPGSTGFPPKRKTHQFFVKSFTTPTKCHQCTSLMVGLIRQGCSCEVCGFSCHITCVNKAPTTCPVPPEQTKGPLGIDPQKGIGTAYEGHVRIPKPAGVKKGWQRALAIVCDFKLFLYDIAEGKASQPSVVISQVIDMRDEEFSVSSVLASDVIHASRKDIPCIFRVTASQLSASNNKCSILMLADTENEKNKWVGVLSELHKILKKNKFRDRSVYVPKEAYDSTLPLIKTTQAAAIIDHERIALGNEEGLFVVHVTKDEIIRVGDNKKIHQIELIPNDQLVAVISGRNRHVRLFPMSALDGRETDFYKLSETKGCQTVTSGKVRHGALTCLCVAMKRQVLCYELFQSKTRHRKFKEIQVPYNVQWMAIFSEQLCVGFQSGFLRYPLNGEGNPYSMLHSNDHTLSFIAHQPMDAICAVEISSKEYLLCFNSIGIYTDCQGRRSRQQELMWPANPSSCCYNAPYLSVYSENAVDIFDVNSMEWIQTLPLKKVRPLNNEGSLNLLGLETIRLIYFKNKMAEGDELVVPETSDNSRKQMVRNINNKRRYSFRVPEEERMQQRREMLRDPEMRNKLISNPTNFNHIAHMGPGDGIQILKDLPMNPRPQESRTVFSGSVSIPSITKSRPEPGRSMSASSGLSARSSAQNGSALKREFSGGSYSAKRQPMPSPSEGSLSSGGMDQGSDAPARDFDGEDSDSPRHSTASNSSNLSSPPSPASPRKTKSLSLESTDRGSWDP
Chain of Casein kinase II subunit alpha' (P19784 whole entry): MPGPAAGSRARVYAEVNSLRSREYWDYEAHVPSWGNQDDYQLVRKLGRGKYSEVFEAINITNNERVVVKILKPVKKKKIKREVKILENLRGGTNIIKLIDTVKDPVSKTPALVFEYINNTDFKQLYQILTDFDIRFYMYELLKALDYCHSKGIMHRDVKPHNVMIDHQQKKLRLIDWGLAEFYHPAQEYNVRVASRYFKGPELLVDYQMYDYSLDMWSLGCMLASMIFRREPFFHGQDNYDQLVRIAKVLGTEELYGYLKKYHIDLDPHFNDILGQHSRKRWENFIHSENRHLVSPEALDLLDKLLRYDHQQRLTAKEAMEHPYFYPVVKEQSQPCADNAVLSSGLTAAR
Chain of Ribosomal protein S6 kinase alpha-4 (O75676 whole entry): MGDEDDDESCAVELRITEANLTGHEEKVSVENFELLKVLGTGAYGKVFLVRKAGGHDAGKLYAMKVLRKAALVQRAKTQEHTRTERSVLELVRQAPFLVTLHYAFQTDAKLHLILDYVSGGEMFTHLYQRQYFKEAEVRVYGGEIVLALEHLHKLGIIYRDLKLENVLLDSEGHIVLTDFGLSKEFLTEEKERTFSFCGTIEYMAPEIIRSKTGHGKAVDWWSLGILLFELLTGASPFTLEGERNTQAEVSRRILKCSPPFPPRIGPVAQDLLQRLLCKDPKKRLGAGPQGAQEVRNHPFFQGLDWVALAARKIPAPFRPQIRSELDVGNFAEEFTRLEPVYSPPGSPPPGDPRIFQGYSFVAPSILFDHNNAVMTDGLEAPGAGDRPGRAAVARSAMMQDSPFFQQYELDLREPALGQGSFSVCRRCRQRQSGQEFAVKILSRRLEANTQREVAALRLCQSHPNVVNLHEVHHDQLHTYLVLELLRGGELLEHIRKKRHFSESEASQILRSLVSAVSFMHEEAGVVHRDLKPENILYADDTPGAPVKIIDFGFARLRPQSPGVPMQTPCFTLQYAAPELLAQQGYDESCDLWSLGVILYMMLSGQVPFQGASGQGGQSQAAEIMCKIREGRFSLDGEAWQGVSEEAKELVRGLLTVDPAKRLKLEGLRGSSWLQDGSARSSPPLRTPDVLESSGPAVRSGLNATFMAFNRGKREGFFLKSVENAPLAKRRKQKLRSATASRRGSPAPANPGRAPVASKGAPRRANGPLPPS

C[C@H]1CNCCCN1S(=O)(=O)c1cccc2cncc(F)c12
Kd [1]: > 30 µM (inactive)
Kd [2]: > 30 µM (inactive)
Kd [3]: > 30 µM (inactive)
Kd [4]: > 30 µM (inactive)
Kd [5]: > 30 µM (inactive)
Kd (TGF-beta receptor type-1): > 30 µM (inactive)

CC(=O)c1cnc2ccc(-c3cc(Cl)c(O)c(Cl)c3)nc2c1N[C@H]1CC[C@H](CN(C)C)CC1
Kd [6]: > 30 µM (inactive)
Kd [2]: 0.01 µM (active)
Kd [3]: > 30 µM (inactive)
Kd [4]: 0.111 µM (active)
Kd (TGF-beta receptor type-1): 0.149 µM (active)
Kd [7]: > 30 µM (inactive)

COCc1c(-c2ccc(NC(=O)Nc3cc(C(F)(F)F)ccc3F)c(F)c2)c2c(N)ncnn2c1CN1CCOCC1
Kd [1]: > 30 µM (inactive)
Kd [6]: > 30 µM (inactive)
Kd [2]: > 30 µM (inactive)
Kd [3]: > 30 µM (inactive)
Kd [4]: > 30 µM (inactive)
Kd (TGF-beta receptor type-1): > 30 µM (inactive)
Kd [7]: > 30 µM (inactive)

COc1cc(Nc2ncc3c(n2)-c2ccc(Cl)cc2C(c2c(F)cccc2OC)=NC3)ccc1C(=O)O [ALISERTIB]
Kd [1]: > 30 µM (inactive)
Kd [5]: > 30 µM (inactive)
Kd (TGF-beta receptor type-1): > 30 µM (inactive)
Kd [7]: > 30 µM (inactive)

CNC(=O)c1ccccc1Sc1ccc2c(/C=C/c3ccccn3)n[nH]c2c1 [AXITINIB]
Kd [1]: > 30 µM (inactive)
Kd [7]: > 30 µM (inactive)

COCC(=O)NC/C=C/c1ccc2ncnc(Nc3ccc(Oc4ccc(C)nc4)c(C)c3)c2c1 [CP-724714]
Kd [1]: > 30 µM (inactive)
Kd [6]: > 30 µM (inactive)
Kd [2]: > 30 µM (inactive)
Kd [3]: > 30 µM (inactive)
Kd [4]: > 30 µM (inactive)
Kd (TGF-beta receptor type-1): > 30 µM (inactive)
Kd [7]: > 30 µM (inactive)

CC(C)(C)c1nc(-c2cccc(NS(=O)(=O)c3c(F)cccc3F)c2F)c(-c2ccnc(N)n2)s1 [DABRAFENIB]
Kd [1]: > 30 µM (inactive)
Kd [6]: > 30 µM (inactive)
Kd [3]: > 30 µM (inactive)
Kd (TGF-beta receptor type-1): 2.38 µM (active)
Kd [7]: > 30 µM (inactive)

C[C@@H](Oc1cc(-n2cnc3ccc(CN4CCN(C)CC4)cc32)sc1C(N)=O)c1ccccc1C(F)(F)F [GSK-461364]
Kd [1]: > 30 µM (inactive)
Kd [7]: > 30 µM (inactive)

CNC(=O)c1cccc2cc(Oc3ccnc4cc(OCC5(N)CC5)c(OC)cc34)ccc12 [LUCITANIB]
Kd [1]: > 30 µM (inactive)
Kd [6]: > 30 µM (inactive)
Kd [2]: > 30 µM (inactive)
Kd [3]: > 30 µM (inactive)
Kd [4]: > 30 µM (inactive)
Kd (TGF-beta receptor type-1): > 30 µM (inactive)
Kd [7]: > 30 µM (inactive)

NC1(c2ccc(-c3nc4ccn5c(=O)[nH]nc5c4cc3-c3ccccc3)cc2)CCC1 [MK-2206]
Kd [1]: > 30 µM (inactive)
Kd [6]: > 30 µM (inactive)
Kd [2]: > 30 µM (inactive)
Kd [3]: > 30 µM (inactive)
Kd [4]: > 30 µM (inactive)
Kd (TGF-beta receptor type-1): > 30 µM (inactive)
Kd [7]: > 30 µM (inactive)

COc1ncc(-c2ccc3nccc(-c4ccnnc4)c3c2)cc1NS(=O)(=O)c1ccc(F)cc1F [OMIPALISIB]
Kd [1]: > 30 µM (inactive)
Kd [6]: > 30 µM (inactive)
Kd [2]: > 30 µM (inactive)
Kd [3]: > 30 µM (inactive)
Kd [4]: > 30 µM (inactive)
Kd (TGF-beta receptor type-1): > 30 µM (inactive)
Kd [7]: > 30 µM (inactive)

Cc1[nH]c(/C=C2\C(=O)Nc3ccccc32)c(C)c1CCC(=O)O [ORANTINIB]
Kd [1]: > 30 µM (inactive)
Kd [2]: 2.1 µM (active)
Kd [4]: 1.39 µM (active)
Kd [5]: > 30 µM (inactive)
Kd (TGF-beta receptor type-1): > 30 µM (inactive)
Kd [7]: > 30 µM (inactive)

NC(=O)c1c(OCc2c(F)cc(Br)cc2F)nsc1NC(=O)NCCCCN1CCCC1 [OSI-632]
Kd [1]: > 30 µM (inactive)
Kd [2]: > 30 µM (inactive)
Kd (TGF-beta receptor type-1): 0.005 µM (active)
Kd [7]: > 30 µM (inactive)

CC(=O)NCC(=O)N1[C@@H]2CC[C@H]1c1ccc(Nc3ncc(C(F)(F)F)c(NC4CCC4)n3)cc12 [PF-03814735]
Kd [1]: > 30 µM (inactive)
Kd [2]: 2.64 µM (active)
Kd [4]: 0.156 µM (active)
Kd [5]: > 30 µM (inactive)
Kd (TGF-beta receptor type-1): > 30 µM (inactive)
Kd [7]: > 30 µM (inactive)

Cc1cnc(NC(=O)Nc2cc(Br)c(C)cc2OC[C@@H]2CNCCO2)cn1 [RABUSERTIB]
Kd [1]: > 30 µM (inactive)
Kd [6]: > 30 µM (inactive)
Kd [2]: > 30 µM (inactive)
Kd [3]: > 30 µM (inactive)
Kd [4]: > 30 µM (inactive)
Kd (TGF-beta receptor type-1): > 30 µM (inactive)
Kd [7]: > 30 µM (inactive)

CNC(=O)c1cc(Oc2ccc(NC(=O)Nc3cc(C(C)(C)C)nn3-c3ccc4ncccc4c3)c(F)c2)ccn1 [REBASTINIB]
Kd [1]: > 30 µM (inactive)
Kd [6]: > 30 µM (inactive)
Kd [2]: > 30 µM (inactive)
Kd [3]: > 30 µM (inactive)
pKd [4]: 4.89
Kd (TGF-beta receptor type-1): > 30 µM (inactive)
Kd [7]: > 30 µM (inactive)

O=C(NOCCO)c1cc(CN2OCCCC2=O)c(F)c(F)c1Nc1ccc(I)cc1F [RO-4987655]
Kd [1]: > 30 µM (inactive)
Kd [7]: > 30 µM (inactive)

N#CC[C@H](C1CCCC1)n1cc(-c2ncnc3[nH]ccc23)cn1 [RUXOLITINIB]
Kd [1]: > 30 µM (inactive)

CCS(=O)(=O)c1cccc(-c2cc(C(=O)NC3CCN(C)CC3)c(C)c3[nH]c4ncc(C)cc4c23)c1 [TAK-901]
Kd [1]: > 30 µM (inactive)
Kd [6]: > 30 µM (inactive)
Kd [2]: 28.9 µM (active)
Kd [3]: > 30 µM (inactive)
Kd [4]: 3 µM (active)
Kd (TGF-beta receptor type-1): 0.197 µM (active)
Kd [7]: > 30 µM (inactive)

COc1cc2c(Nc3ccc(Cl)c(Cl)c3F)ncnc2cc1OC[C@@H]1C[C@@H]2CN(C)C[C@@H]2C1 [TESEVATINIB]
Kd [1]: > 30 µM (inactive)
Kd [6]: > 30 µM (inactive)
Kd [2]: > 30 µM (inactive)
Kd [3]: > 30 µM (inactive)
Kd [4]: > 30 µM (inactive)
Kd (TGF-beta receptor type-1): 3.32 µM (active)
Kd [7]: > 30 µM (inactive)

C[C@@H](NC(=O)c1ncnc(N)c1Cl)c1ncc(C(=O)Nc2cc(C(F)(F)F)c(Cl)cn2)s1 [TOVORAFENIB]
Kd [6]: > 30 µM (inactive)
Kd [2]: > 30 µM (inactive)
Kd [3]: > 30 µM (inactive)
Kd [4]: > 30 µM (inactive)
Kd (TGF-beta receptor type-1): > 30 µM (inactive)

Cc1cc(Nc2ncnc3ccc(NC4=NC(C)(C)CO4)cc23)ccc1Oc1ccn2ncnc2c1 [TUCATINIB]
Kd [1]: > 30 µM (inactive)
Kd [6]: > 30 µM (inactive)
Kd [2]: > 30 µM (inactive)
Kd [3]: > 30 µM (inactive)
Kd [4]: > 30 µM (inactive)
Kd (TGF-beta receptor type-1): > 30 µM (inactive)
Kd [7]: > 30 µM (inactive)
